The record followed here is patent US20240150377A1, “MODULATORS OF CYSTIC FIBROSIS TRANSMEMBRANE CONDUCTANCE REGULATOR” (VERTEX PHARMACEUTICALS INCORPORATED, priority 2020, published 2024).

This experiment addresses T1, CFTR (Homo sapiens, UniProt P13569, DEL508-508).
T1 construct: endogenous in cells; host or cells: primary human bronchial epithelial cells from CF subjects (F508del/MF-HBE), differentiated at air-liquid interface
Briefly: HBE assay: Ussing chamber assay of CFTR-mediated short-circuit currents. Format: cell-based. The conditions noted are these: for Emax: read-out: HBE Max Activity (%); for activation at 10 µM: read-out: HBE Activity at 10 μM (%). A digest of the protocol: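 CFTR-mediated Isc (μA/cm²) equals the peak response to apical 20 μM forskolin minus the residual after a 20 μM each BPO/GlyH-101/CFTR inhibitor 172 cocktail, recorded in Ussing chambers at Vhold 0 mV, 37 °C, pH 7.4, with 30 μM apical amiloride. Cells were F508del/MF HBE cultures preincubated 18-24 h with corrector (concentration range or 10 μM) plus 1 μM ivacaftor in 20% human serum.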

SMILES strings stand for the structures. Like-named read-outs stand apart in the source and are kept apart here.

T1 sequence (P13569 with tags, fused parts or gaps DEL508-508): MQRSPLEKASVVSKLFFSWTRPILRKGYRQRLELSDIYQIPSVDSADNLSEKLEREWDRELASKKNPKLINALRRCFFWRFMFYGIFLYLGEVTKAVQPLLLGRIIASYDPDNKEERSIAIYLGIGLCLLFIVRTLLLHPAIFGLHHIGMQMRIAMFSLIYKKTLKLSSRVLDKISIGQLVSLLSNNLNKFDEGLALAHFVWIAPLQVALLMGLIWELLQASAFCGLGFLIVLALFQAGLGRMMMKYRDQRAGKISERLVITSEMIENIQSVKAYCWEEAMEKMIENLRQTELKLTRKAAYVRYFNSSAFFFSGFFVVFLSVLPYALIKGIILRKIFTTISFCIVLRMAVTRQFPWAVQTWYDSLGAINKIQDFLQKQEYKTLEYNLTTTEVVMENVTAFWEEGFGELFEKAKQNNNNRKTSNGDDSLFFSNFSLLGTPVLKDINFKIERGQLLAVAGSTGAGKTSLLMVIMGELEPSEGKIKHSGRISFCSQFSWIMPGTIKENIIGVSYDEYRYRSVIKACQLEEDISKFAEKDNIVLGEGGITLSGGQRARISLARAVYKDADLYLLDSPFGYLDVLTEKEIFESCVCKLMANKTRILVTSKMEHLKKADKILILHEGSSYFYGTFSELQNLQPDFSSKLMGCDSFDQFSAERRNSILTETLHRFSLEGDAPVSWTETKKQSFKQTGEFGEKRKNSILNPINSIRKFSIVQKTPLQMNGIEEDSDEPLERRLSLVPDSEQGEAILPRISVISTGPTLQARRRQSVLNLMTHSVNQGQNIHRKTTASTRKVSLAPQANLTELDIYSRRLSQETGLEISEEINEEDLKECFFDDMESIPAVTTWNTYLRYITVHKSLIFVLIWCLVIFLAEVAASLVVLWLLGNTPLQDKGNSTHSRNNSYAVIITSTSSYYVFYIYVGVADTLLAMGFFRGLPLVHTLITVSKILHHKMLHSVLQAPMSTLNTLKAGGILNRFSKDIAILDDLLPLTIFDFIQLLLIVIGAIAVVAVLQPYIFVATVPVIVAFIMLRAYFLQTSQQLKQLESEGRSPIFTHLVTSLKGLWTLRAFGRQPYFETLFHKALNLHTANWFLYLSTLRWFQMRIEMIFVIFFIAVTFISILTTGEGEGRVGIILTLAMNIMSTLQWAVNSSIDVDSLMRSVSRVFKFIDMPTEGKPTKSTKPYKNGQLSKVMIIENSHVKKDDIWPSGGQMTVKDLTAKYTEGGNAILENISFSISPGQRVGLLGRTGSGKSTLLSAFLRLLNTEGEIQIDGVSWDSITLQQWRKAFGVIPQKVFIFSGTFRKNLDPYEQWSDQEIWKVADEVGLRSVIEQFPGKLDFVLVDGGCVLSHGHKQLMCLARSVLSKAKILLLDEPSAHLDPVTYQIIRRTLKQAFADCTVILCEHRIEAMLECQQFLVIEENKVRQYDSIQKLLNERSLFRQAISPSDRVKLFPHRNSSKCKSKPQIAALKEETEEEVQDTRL

Usually EC50 stands for the concentration that produces a half-maximal response. Consider `Cc1cccc(C)c1-c1cc2nc(n1)NS(=O)(=O)c1cccc(c1)C(=O)N(Cc1nccc(N3CCCC3(C)C)n1)[C@H](CC(C)(C)C)CO2` [Compound 587], for which, for the setting “Table 12, read-out: HBE EC50”, the EC50 was under 1 µM. Also, where the note is “Table 12”, the Emax is over 60%.

As to `Cc1cccc(C)c1-c1cc2nc(n1)NS(=O)(=O)c1cccc(c1)C(=O)N(Cc1cccc(/C=C/C(C)(C)C)n1)[C@H](CC(C)(C)C)CO2` [Compound 588], the half-maximal effective concentration (EC50) (Table 12, read-out: HBE EC50) was under 1 µM. For the same molecule, the Emax (Table 12) was over 60%.

For the molecule `CC(C)=Cc1cccc(CN2C(=O)c3cccc(c3)S(=O)(=O)Nc3nc(cc(-c4c(C)cccc4C)n3)OC[C@H]2CC(C)(C)C)n1` [Compound 589], under “Table 12, read-out: HBE EC50”, the EC50 was under 1 µM. Besides, the Emax (Table 12) was over 60%.

As to `Cc1cccc(C)c1-c1cc2nc(n1)NS(=O)(=O)c1cccc(c1)C(=O)N(Cc1cccc(-c3ncccn3)n1)[C@H](CC(C)(C)C)CO2` [Compound 590], the EC50 (Table 12, read-out: HBE EC50) was under 1 µM. Besides, the Emax (Table 12) is over 60%.

On to `Cc1cccnc1-c1cccc(CN2C(=O)c3cccc(c3)S(=O)(=O)Nc3nc(cc(-c4c(C)cccc4C)n3)OC[C@H]2CC(C)(C)C)n1` [Compound 591], for which the activation at 10 µM (Table 12) was over 600%.

In the case of `Cc1cccc(C)c1-c1cc2nc(n1)NS(=O)(=O)c1cccc(c1)C(=O)N(Cc1cccc(N3CCCC3(C)C)n1)[C@H](CC(C)(C)C)CO2` [Compound 592], the 50% effective concentration (EC50) (Table 12, read-out: HBE EC50) was 1 to 3 µM. The Emax (Table 12) is over 60%.

Consider `C=C(C)c1nccc(CN2C(=O)c3cccc(c3)S(=O)(=O)Nc3nc(cc(-c4c(C)cccc4C)n3)OC[C@H]2CC(C)(C)C)n1` [Compound 593], for which, under “Table 12, read-out: HBE EC50”, the half-maximal effective concentration (EC50) was under 1 µM. In addition, the Emax (Table 12) was over 60%.

In the case of `Cc1cccc(C)c1-c1cc2nc(n1)NS(=O)(=O)c1cccc(c1)C(=O)N(Cc1ccnc(CC(C)C)n1)[C@H](CC(C)(C)C)CO2` [Compound 594], the concentration for a half-maximal effect (EC50) (Table 12, read-out: HBE EC50) is under 1 µM. In addition, where the note is “Table 12”, the Emax is over 60%.

For the molecule `Cc1cccc(C)c1-c1cc2nc(n1)NS(=O)(=O)c1cccc(c1)C(=O)N(Cc1ccnc(OC(C)C)n1)[C@H](CC(C)(C)C)CO2` [Compound 595], the concentration for a half-maximal effect (EC50) (Table 12, read-out: HBE EC50) was under 1 µM. For the setting “Table 12”, the Emax was over 60%.

As for `CC(C)=Cc1nccc(CN2C(=O)c3cccc(c3)S(=O)(=O)Nc3nc(cc(-c4c(C)cccc4C)n3)OC[C@H]2CC(C)(C)C)n1` [Compound 596], the half-maximal effective concentration (EC50) (Table 12, read-out: HBE EC50) was under 1 µM. Further, under “Table 12”, the Emax is over 60%.

As to `Cc1cccc(C)c1-c1cc2nc(n1)NS(=O)(=O)c1cccc(c1)C(=O)N(Cc1cccc(N3CC(C)(C)CC3(C)C)n1)[C@H](CC(C)(C)C)CO2` [Compound 597], the concentration giving a half-maximal response (EC50) (Table 12, read-out: HBE EC50) is under 1 µM. The Emax (Table 12) was 30 to 60%.

As to `Cc1cccc(C)c1-c1cc2nc(n1)NS(=O)(=O)c1cccc(c1)C(=O)N(Cc1cccc(C3CCCC3)n1)[C@H](CC(C)(C)C)CO2` [Compound 598], where the note is “Table 11”, the activation at 10 µM is over 60% and the Emax is over 60%. Besides, the EC50 (Table 11, read-out: HBE EC50) was under 1 µM.

For the molecule `COC1CCN(c2cnc(CN3C(=O)c4cccc(c4)S(=O)(=O)Nc4nc(cc(-c5c(C)cccc5C)n4)OC[C@H]3CC(C)(C)C)nc2)C1` (some centres unmarked) [Compound 599], the EC50 (Table 11, read-out: HBE EC50) lay in the range of 1 to 3 µM. Besides, the Emax (Table 11) was over 60%.

As to `COCCN(C)c1nccc(CN2C(=O)c3cccc(c3)S(=O)(=O)Nc3nc(cc(-c4c(C)cccc4C)n3)OC[C@H]2CC(C)(C)C)n1` [Compound 600], the concentration for a half-maximal effect (EC50) (Table 11, read-out: HBE EC50) is under 1 µM. Besides, for the setting “Table 11”, the Emax was over 60%.

Regarding `Cc1cccc(C)c1-c1cc2nc(n1)NS(=O)(=O)c1cccc(c1)C(=O)N(Cc1ccnc(N(C)CC(C)(C)C)n1)[C@H](CC(C)(C)C)CO2` [Compound 601], under “Table 11, read-out: HBE EC50”, the EC50 was under 1 µM. In addition, under “Table 11”, the Emax was over 60%.

As to `CCN(c1ccnc(CN2C(=O)c3cccc(c3)S(=O)(=O)Nc3nc(cc(-c4c(C)cccc4C)n3)OC[C@H]2CC(C)(C)C)n1)C(C)C` [Compound 602], the 50% effective concentration (EC50) (Table 11, read-out: HBE EC50) is under 1 µM. Besides, under “Table 11”, the Emax was over 60%.

Take `Cc1cccc(C)c1-c1cc2nc(n1)NS(=O)(=O)c1cccc(c1)C(=O)N(Cc1cccc(C3CCCCO3)n1)[C@H](CC(C)(C)C)CO2` (some centres unmarked) [Compound 603]: the EC50 (Table 11, read-out: HBE EC50) was under 1 µM. Moreover, the Emax (Table 11) is over 60%.

Take `Cc1cccc(C)c1-c1cc2nc(n1)NS(=O)(=O)c1cccc(c1)C(=O)N(Cc1cccc(C3CCCCO3)n1)[C@H](CC(C)(C)C)CO2` (some centres unmarked) [Compound 604]: the EC50 (Table 12, read-out: HBE EC50) was under 1 µM. The Emax (Table 12) was over 60%.

Turning to `Cc1cccc(C)c1-c1cc2nc(n1)NS(=O)(=O)c1cccc(c1)C(=O)N(Cc1ncc(N3CCC(C)(C)CC3)cn1)[C@H](CC(C)C)CO2` [Compound 605], the EC50 (Table 11, read-out: HBE EC50) lay in the range of 3 to 30 µM. Moreover, the Emax (Table 11) is over 60%.

With `Cc1cccc(C)c1-c1cc2nc(n1)NS(=O)(=O)c1cccc(c1)C(=O)N(Cc1ncc(N3CCC(C)(C)C3)cn1)[C@H](CC(C)C)CO2` [Compound 606], where the note is “Table 11, read-out: HBE EC50”, the 50% effective concentration (EC50) was under 1 µM. The Emax (Table 11) is over 60%.

Take `Cc1cccc(C)c1-c1cc2nc(n1)NS(=O)(=O)c1cccc(c1)C(=O)N(Cc1cnc(N3CCC(C)(C)C3)cn1)[C@H](CC(C)(C)C)CO2` [Compound 607]: the EC50 (Table 11, read-out: HBE EC50) was under 1 µM. The Emax (Table 11) is over 60%.

Turning to `Cc1cccc(C)c1-c1cc2nc(n1)NS(=O)(=O)c1cccc(c1)C(=O)N(Cc1cnc(N3CCC(C)(C)CC3)cn1)[C@H](CC(C)(C)C)CO2` [Compound 608], the concentration for a half-maximal effect (EC50) (Table 11, read-out: HBE EC50) is under 1 µM. Also, the Emax (Table 11) is over 60%.

For `Cc1cccc(C)c1-c1cc2nc(n1)NS(=O)(=O)c1cccc(c1)C(=O)N(Cc1ccc(N3CCC(C)(C)C3)cn1)[C@H](CC(C)(C)C)CO2` [Compound 609], the EC50 (Table 11, read-out: HBE EC50) was 1 to 3 µM. The Emax (Table 11) is over 60%.

`Cc1cccc(C)c1-c1cc2nc(n1)NS(=O)(=O)c1cccc(c1)C(=O)N(Cc1ncc(OC(C)C)c(C)n1)[C@H](CC(C)(C)C)CO2` [Compound 610]: for the setting “Table 11, read-out: HBE EC50”, the 50% effective concentration (EC50) is under 1 µM. In addition, under “Table 11”, the Emax is over 60%.

Take `COc1cnc(CN2C(=O)c3cccc(c3)S(=O)(=O)Nc3nc(cc(-c4c(C)cccc4C)n3)OC[C@H]2CC(C)(C)C)nc1C` [Compound 611]: where the note is “Table 11, read-out: HBE EC50”, the EC50 was under 1 µM. The Emax (Table 11) is over 60%.

On to `Cc1cccc(C)c1-c1cc2nc(n1)NS(=O)(=O)c1cccc(c1)C(=O)N(Cc1ncc(N3CCC4(CCC4)C3)cn1)[C@H](CC(C)(C)C)CO2` [Compound 612], for which the half-maximal effective concentration (EC50) (Table 11, read-out: HBE EC50) was under 1 µM. The Emax (Table 11) was over 60%.

With `Cc1cccc(C)c1-c1cc2nc(n1)NS(=O)(=O)c1cccc(c1)C(=O)N(Cc1ncc(N3CC4CC(C4)C3)cn1)[C@H](CC(C)(C)C)CO2` [Compound 613], for the setting “HBE EC50 (μM), Table 11”, the EC50 is under 1 µM. Further, the Emax (Table 11) was over 60%.

For `Cc1cccc(C)c1-c1cc2nc(n1)NS(=O)(=O)c1cccc(c1)C(=O)N(Cc1nccc(NC3CCCCC3)n1)[C@H](CC(C)(C)C)CO2` [Compound 614], under “Table 11, read-out: HBE EC50”, the EC50 was under 1 µM. Moreover, where the note is “Table 11”, the Emax was over 60%.

As for `Cc1cccc(C)c1-c1cc2nc(n1)NS(=O)(=O)c1cccc(c1)C(=O)N(Cc1nccc(N(C)C3CC4(CC4)C3)n1)[C@H](CC(C)(C)C)CO2` [Compound 615], the EC50 (Table 11, read-out: HBE EC50) was under 1 µM. The Emax (Table 11) was over 60%.

With `Cc1cccc(C)c1-c1cc2nc(n1)NS(=O)(=O)c1cccc(c1)C(=O)N(Cc1nccc(N(C)C3CCOCC3)n1)[C@H](CC(C)(C)C)CO2` [Compound 616], the EC50 (Table 11, read-out: HBE EC50) is under 1 µM. Besides, under “Table 11”, the Emax was over 60%.

`Cc1cccc(C)c1-c1cc2nc(n1)NS(=O)(=O)c1cccc(c1)C(=O)N(Cc1nccc(N(C)C3CCCC3)n1)[C@H](CC(C)(C)C)CO2` [Compound 617]: the EC50 (Table 11, read-out: HBE EC50) is 1 to 3 µM. Under “Table 11”, the Emax was over 60%.

For the molecule `Cc1cccc(C)c1-c1cc2nc(n1)NS(=O)(=O)c1cccc(c1)C(=O)N(Cc1nccc(N3CCC[C@H]3C)n1)[C@H](CC(C)(C)C)CO2` [Compound 618], the concentration giving a half-maximal response (EC50) (Table 11, read-out: HBE EC50) is under 1 µM. For the same molecule, the Emax (Table 11) was over 60%.

As for `Cc1cccc(C)c1-c1cc2nc(n1)NS(=O)(=O)c1cccc(c1)C(=O)N(Cc1nccc(N3CCC(C)(C)CC3)n1)[C@H](CC(C)(C)C)CO2` [Compound 620], under “Table 11”, the “HBE Max activity (%)” value is “+ (+ is <30%)” and the activation at 10 µM was over 60%.

As for `Cc1cccc(C)c1-c1cc2nc(n1)NS(=O)(=O)c1cccc(c1)C(=O)N(Cc1cccc(C3=CCCC3)n1)[C@H](CC(C)(C)C)CO2` [Compound 621], the EC50 (Table 11, read-out: HBE EC50) is under 1 µM. Also, where the note is “Table 11”, the Emax was over 60%.

Take `Cc1cccc(C)c1-c1cc2nc(n1)NS(=O)(=O)c1cccc(c1)C(=O)N(Cc1ncc(N3CC4(CC4)C3)cn1)[C@H](CC(C)(C)C)CO2` [Compound 622]: the concentration giving a half-maximal response (EC50) (Table 11, read-out: HBE EC50) fell in the range of 1 to 3 µM. For the setting “Table 11”, the Emax is over 60%.

As for `CO[C@@H]1CCN(c2cnc(CN3C(=O)c4cccc(c4)S(=O)(=O)Nc4nc(cc(-c5c(C)cccc5C)n4)OC[C@H]3CC(C)(C)C)nc2)C1` [Compound 623], the EC50 (Table 11, read-out: HBE EC50) was under 1 µM. Besides, under “Table 11”, the Emax is over 60%.

`CO[C@@H]1CCN(c2cccc(CN3C(=O)c4cccc(c4)S(=O)(=O)Nc4nc(cc(-c5c(C)cccc5C)n4)OC[C@H]3CC(C)(C)C)n2)C1` [Compound 624]: the 50% effective concentration (EC50) (Table 11, read-out: HBE EC50) is under 1 µM. Further, the Emax (Table 11) was over 60%.

Turning to `COC1CCN(c2cccc(CN3C(=O)c4cccc(c4)S(=O)(=O)Nc4nc(cc(-c5c(C)cccc5C)n4)OC[C@H]3CC(C)(C)C)n2)C1` (some centres unmarked) [Compound 625], the EC50 (Table 11, read-out: HBE EC50) was under 1 µM. Under “Table 11”, the Emax is over 60%.

For the molecule `Cc1cccc(C)c1-c1cc2nc(n1)NS(=O)(=O)c1cccc(c1)C(=O)N(Cc1cccc(C3CCC3)n1)[C@H](CC(C)(C)C)CO2` [Compound 626], the EC50 (Table 11, read-out: HBE EC50) is under 1 µM. Besides, for the setting “Table 11”, the Emax was over 60%.

Regarding `Cc1cccc(C)c1-c1cc2nc(n1)NS(=O)(=O)c1cccc(c1)C(=O)N(Cc1nccc(N(C)C3CCC3)n1)[C@H](CC(C)(C)C)CO2` [Compound 627], the EC50 (Table 11, read-out: HBE EC50) was under 1 µM. In addition, the Emax (Table 11) was over 60%.
